The source of these data is PMC11489206, “Transport of perfluoroalkyl substances across human induced pluripotent stem cell-derived intestinal epithelial cells in comparison with primary human intestinal epithelial cells and Caco-2 cells” (Archives of Toxicology, 2024).

What is called Papp A→B is the apparent permeability from the apical to the basolateral side of a cell layer. Read a high Papp A→B as ready permeation. In general, Papp B→A refers to how fast a substance crosses the layer from the basolateral side. One may read the efflux ratio as the permeability from basolateral to apical divided by that in the opposite direction, in the common usage.

For data set [1] the following is noted: ref Ayehunie et al. (2005); cited from earlier work.
Data set [2] can be described thus: Transport study across EpiIntestinal microtissues. As to conditions: human. The protocol:
The human EpiIntestinal small intestinal microtissues, consisting of epithelial cells and an underlying lamina propria containing intestinal fibroblasts, were obtained from MatTek Life Sciences (Ashland, USA). Cell culture inserts (8.8 mm ID) were placed in 12-well plates and cells were maintained in 100 µl maintenance medium (MatTek Life Sciences) in the apical compartment and 5 ml maintenance medium in the basolateral compartment upon arrival. The transport studies were performed 1 day after arrival.
(§1) Transport studies were performed in Caco-2 cells, hiPSC-derived IECs and EpiIntestinal microtissues. To that end, Caco-2 cell layers were differentiated for 21 days and hiPSCs were differentiated into IEC layers for 26 days, as described above. EpiIntestinal microtissues were subjected to transport studies 1 day after arrival. […] For all models, PFAS transport was assessed in apical to basolateral, and basolateral to apical direction using HBSS containing a mixture of PFASs containing 1 µM of each PFAS. See Supplementary Data for a detailed description of the method used for the transport studies of the model compounds and PFASs.
(§2) Prior to exposure to the transport study compounds, the cells were washed with transport medium (HBSS; Sigma). […] 100 µL aliquots were collected from the basolateral compartment and replaced with the same volume HBSS at settled time points (0, 15, 30 and 60 min). For basolateral to apical transport in the EpiIntestinal microtissues, 0.2 mL HBSS was added to the apical compartment and 0.5 mL HBSS containing a mixture of PFASs containing 1 µM of each PFAS, was added to the basolateral compartment. 100 µL aliquots were collected from the apical compartment and replaced with the same volume of HBSS at settled time points (0, 15, 30 and 60 min). For apical to basolateral transport across the Caco-2 cell layers and hiPSC-derived IEC layers, 1.2 mL HBSS was added to the basolateral compartment and 0.4 mL HBSS containing either model compounds (10 µM) or a mixture of PFASs containing 1 µM of each PFAS, was added to the apical compartment. 100 µL aliquots were collected from the basolateral compartment and replaced with the same volume of HBSS at settled time points (0, 7.5, 15, 30 and 60 min for the model compounds with both models and the PFASs with the hiPSC-derived IEC layers and 0, 15, 30 and 60 min for PFASs with the Caco-2 cell layers). For basolateral to apical transport, 0.4 mL HBSS was added to the apical compartment and 1.2 mL HBSS containing 10 µM of the model compounds or a mixture of PFASs containing 1 µM of each PFAS, was added to the basolateral compartment. 100 µL aliquots were collected from the apical compartment and replaced with the same volume of HBSS at settled time points (0, 7.5, 15, 30 and 60 min for the model compounds with both models and the PFASs with the hiPSC-derived IEC layers and 0, 15, 30 and 60 min for PFASs with the Caco-2 cell layers). After 60 minutes, all liquid was collected from the apical and basolateral compartment and the cells were lysed in 200 µL RIPA buffer (Thermo Fisher Scientific), and chemicals were quantified in the different compartments (apical, basolateral and cells) in order to calculate the mass balance.
(§3) The apparent permeability coefficient (Papp, cm/s) was calculated using the following equation: […]
where A is the surface area (cm^2), dQ is the amount of the compound transported (nmol) over the respective time interval dt (s) and C0 is the initial concentration in the donor compartment (µM).

Data set [3] in a line: Transport study across hiPSC-derived IEC layers. As to conditions: human. The procedure: For differentiation into IECs, definitive endoderm cells were subsequently differentiated into intestinal stem cells by changing medium into DMEM/F12 containing 2% fetal bovine serum, 1% GlutaMAX (Gibco) and 250 ng/ml FGF2 (R&D Systems). After 4 days, cells were dissociated using Accutase and seeded onto polyester Transwell inserts (0.4 µm, Corning) coated with Growth Factor Reduced Matrigel #356231. Cells were cultured for 7 days in intestinal differentiation medium (DMEM/F-12 containing 2% fetal bovine serum, 1% non-essential amino acids (Gibco), 1 × B27 (Gibco), 1 × N2 (Gibco), 1% penicillin/streptomycin (Gibco) and 2 mM L-glutamine (Gibco)) supplemented with 20 ng/ml EGF (R&D Systems) and 30 µM Forskolin (Sigma). ROCK inhibitor, y-27632 (final concentration 10 µM; Stem Cell Technologies), was added during the initial 24 h after seeding to reduce cell death. The cells were subsequently cultured for 12 days in intestinal differentiation medium supplemented with 20 ng/ml EGF, 30 µM Forskolin, 5 µM 5-aza-2′-deoxycytidine (Sigma), 20 µM PD98059 (Stem Cell Technologies) and 0.5 µM A-83–01 (Sigma). The medium was refreshed every 2–3 days. Barrier integrity was determined by measuring apical to basolateral translocation of Lucifer yellow (see Supplementary Data for a detailed description).
as §1
as §2, with “layers).” for “layers). After 60 minutes, all liquid was collected from the apical and basolateral compartment and the cells were lysed in 200 µL RIPA buffer (Thermo Fisher Scientific), and chemicals were quantified in the different compartments (apical, basolateral and cells) in order to calculate the mass balance.”

Data set [4] can be described thus: Transport study across Caco-2 cell layers. As to conditions: human, Caco-2. The protocol:
Human colorectal adenocarcinoma cells (Caco-2, HTB-37) were obtained from American Type Culture Collection (ATCC, Manassas, VA). Cells were cultured in a humidified incubator (37°C, 5% CO2) in Dulbecco’s modified Eagle’s medium (DMEM) supplemented with 10% heat-inactivated fetal bovine serum (Gibco, Thermo Fisher Scientific, Waltham, MA), 1% non-essential amino acids (Gibco) and 1% penicillin/streptomycin (Sigma). For experiments, Caco-2 cells below passage number 50 were used within 10 passages. They were harvested at 80% confluence using Trypsin/EDTA (0.25%/0.05%; PAN Biotech, Aidenbach, Germany) and seeded at a density of 4 × 10^5 cells/cm^2 into inserts with a polycarbonate membrane (0.4 µm pore, Corning, New York, NY). After 21 days of differentiation (using 500 µl cell culture medium in the apical and 1500 µl in the basolateral compartment), monolayer integrity was determined by measuring transepithelial electrical resistance (TEER) with a Millicell ERS Volt-Ohm meter (Millipore, Bedford, MA).
as §1, §2, §3
Background: Caco-2 cells form a polarised layer with tight junctions and transporters.

Data set [5] concerns EpiIntestinal model. As to conditions: apical to basolateral, ref Ayehunie et al. (2005); cited from earlier work.
Data set [6] deals with Caco-2 model. As to conditions: cited from earlier work.

The structures appear in SMILES notation. Like-named read-outs stand apart in the source and are kept apart here. Marks after values point to notes of the source that are not given here.

For the compound `CC(C)NCC(O)COc1ccc(CC(N)=O)cc1` (centres unmarked) [Atenolol, atenolol], in data set [1], the “Fa (fraction absorbed in humans)” value is 50%.
With `O=S(=O)(O)C(F)(F)C(F)(F)C(F)(F)C(F)(F)C(F)(F)C(F)(F)F` [PFHxS, perfluorohexane sulfonate], in data set [2], the Papp A→B at 60 min, 1 µM came to 12.5 ± 0.78 ×10⁻⁶ cm/s; the Papp B→A at 60 min, 1 µM is 14.1 ± 0.67 ×10⁻⁶ cm/s; the efflux ratio at 60 min, 1 µM worked out at 1.13. Further, in data set [3], the Papp A→B at 60 min, 1 µM amounted to 3.95 ± 0.47 ×10⁻⁶ cm/s; the Papp B→A at 60 min, 1 µM stood at 6.71 ± 0.43 ×10⁻⁶ cm/s; the efflux ratio at 60 min, 1 µM amounted to 1.7. For the same compound, in data set [4], the Papp A→B at 60 min, 1 µM turned out to be 8.78 ± 1.76 ×10⁻⁶ cm/s; the Papp B→A at 60 min, 1 µM came out at 11.6 ± 0.2 ×10⁻⁶ cm/s; the efflux ratio at 60 min, 1 µM worked out at 1.33.
As for `O=C(O)C(F)(F)C(F)(F)C(F)(F)C(F)(F)C(F)(F)C(F)(F)C(F)(F)C(F)(F)F` [PFNA, perfluorononanoic acid], the values for the Papp A→B at 60 min, 1 µM in data set [2], in data set [3] and in data set [4] were 8.48 ± 0.57 ×10⁻⁶ cm/s, 1.95 ± 0.27 ×10⁻⁶ cm/s and 4.55 ± 0.56 ×10⁻⁶ cm/s, respectively. Besides, the results for the Papp B→A at 60 min, 1 µM in data set [2], in data set [3] and in data set [4] were 7.51 ± 0.5 ×10⁻⁶ cm/s, 2.88 ± 0.28 ×10⁻⁶ cm/s and 3.14 ± 0.33 ×10⁻⁶ cm/s, respectively. Besides, the figures for the efflux ratio at 60 min, 1 µM in data set [2], in data set [3] and in data set [4] were 0.89, 1.48 and 0.69, respectively.
As for `O=C(O)C(F)(F)C(F)(F)C(F)(F)C(F)(F)C(F)(F)C(F)(F)C(F)(F)F` [PFOA, perfluorooctanoic acid], in data set [2], the Papp A→B at 60 min, 1 µM turned out to be 7.31 ± 0.43 ×10⁻⁶ cm/s; the Papp B→A at 60 min, 1 µM was found to be 6.99 ± 0.82 ×10⁻⁶ cm/s; the efflux ratio at 60 min, 1 µM amounted to 0.96. In data set [3], the Papp A→B at 60 min, 1 µM amounted to 3.27 ± 0.45 ×10⁻⁶ cm/s; the Papp B→A at 60 min, 1 µM was 5.3 ± 0.42 ×10⁻⁶ cm/s; the efflux ratio at 60 min, 1 µM stood at 1.62. Moreover, in data set [4], the Papp A→B at 60 min, 1 µM turned out to be 4.23 ± 0.41 ×10⁻⁶ cm/s; the Papp B→A at 60 min, 1 µM amounted to 5.75 ± 0.97 ×10⁻⁶ cm/s; the efflux ratio at 60 min, 1 µM was determined as 1.36.
As to `O=S(=O)(O)C(F)(F)C(F)(F)C(F)(F)C(F)(F)C(F)(F)C(F)(F)C(F)(F)C(F)(F)F` [PFOS, perfluorooctane sulfonate], in data set [2], the Papp A→B at 60 min, 1 µM turned out to be 5.97 ± 0.05 ×10⁻⁶ cm/s; the Papp B→A at 60 min, 1 µM is 3.31 ± 0.22 ×10⁻⁶ cm/s; the efflux ratio at 60 min, 1 µM stood at 0.55. Moreover, in data set [3], the Papp A→B at 60 min, 1 µM was determined as 0.63 ± 0.08 ×10⁻⁶ cm/s; the Papp B→A at 60 min, 1 µM came out at 0.82 ± 0.17 ×10⁻⁶ cm/s; the efflux ratio at 60 min, 1 µM was 1.31. In data set [4], the Papp A→B at 60 min, 1 µM was found to be 2.88 ± 0.2 ×10⁻⁶ cm/s; the Papp B→A at 60 min, 1 µM stood at 1.06 ± 11 ×10⁻⁶ cm/s; the efflux ratio at 60 min, 1 µM came out at 0.37.
Take `CC(C)NCC(O)COc1cccc2ccccc12` (centres unmarked) [Propranolol, propranolol]: the Papp A→B at 60 min, 10 µM in data set [3] was 26.7 ± 1.4 ×10⁻⁶ cm/s; in data set [4], 11.8 ± 1.07 ×10⁻⁶ cm/s. In addition, the figures for the Papp B→A at 60 min, 10 µM in data set [3] and in data set [4] were 17.9 ± 0.93 ×10⁻⁶ cm/s and 8.13 ± 0.12 ×10⁻⁶ cm/s, respectively. The “Average Papp A–B” value in data set [5] is given as 9.4 ± 5.4^b × 10^–6 cm/s. Also, the “Average Papp A - B” value in data set [6] (ref Artursson et al. 1991) was 41.9 ×10⁻⁶ cm/s; in data set [6] (ref Ayehunie et al. 2018), 12.9 ×10⁻⁶ cm/s; in data set [6] (ref Grès et al. 1998), 34.4 ×10⁻⁶ cm/s; in data set [6] (ref Logoyda et al. 2018), 36.13 ×10⁻⁶ cm/s; in data set [6] (ref Nožinić et al. 2010), 0.12 ×10⁻⁶ cm/s; in data set [6] (ref Walgren et al. 1999), 35.3 ×10⁻⁶ cm/s. Also, in data set [6] (ref Yazdanian et al. 1998), the “Average Papp A - B” value is 21.8 ×10⁻⁶ cm/s.
For the compound `C=C[C@H]1C[N@@]2CC[C@H]1C[C@@H]2[C@@H](O)c1ccnc2ccc(OC)cc12` [Quinidine, quinidine], in data set [3], the Papp A→B at 60 min, 10 µM came out at 22.3 ± 0.4 ×10⁻⁶ cm/s and the Papp B→A at 60 min, 10 µM worked out at 25.5 ± 1.17 ×10⁻⁶ cm/s. Besides, in data set [5], the “Average Papp A–B” value is recorded as 7.9 ± 2.7^a × 10^–6 cm/s.
For the compound `CC(=O)CC(c1ccccc1)c1c(O)c2ccccc2oc1=O` (centres unmarked) [Warfarin, warfarin], the Papp A→B at 60 min, 10 µM in data set [4] is 17.9 ± 1.39 ×10⁻⁶ cm/s. Besides, the Papp B→A at 60 min, 10 µM in data set [4] was 24.5 ± 0.94 ×10⁻⁶ cm/s. Besides, the “Average Papp A–B” value in data set [5] is 36.7 ± 16.8^a × 10^–6 cm/s. Further, the “Average Papp A - B” value in data set [6] (ref Artursson et al. 1991) is 38.3 ×10⁻⁶ cm/s; in data set [6] (ref Ayehunie et al. 2018), 28.6 ×10⁻⁶ cm/s; in data set [6] (ref Gschwind et al. 2013), 22.7 ×10⁻⁶ cm/s; in data set [6] (ref Yazdanian et al. 1998), 21.1 ×10⁻⁶ cm/s.
